Assay results reported in the supplement of paper PMC10307832.

Experiments:
Experiment in all cases: relative viability (nuclei count vs DMSO), 5 days (fraction); higher = more cells survive
AZD5582 + Dasatinib = compound: C[C@@H](C(=O)N[C@@H](C1CCCCC1)C(=O)N2CCC[C@H]2C(=O)N[C@@H]3[C@@H](CC4=CC=CC=C34)OCC#CC#CCO[C@@H]5CC6=CC=CC=C6[C@@H]5NC(=O)[C@@H]7CCCN7C(=O)[C@H](C8CCCCC8)NC(=O)[C@H](C)NC)NC [AZD5582] + Cc1nc(Nc2ncc(C(=O)Nc3c(C)cccc3Cl)s2)cc(N2CCN(CCO)CC2)n1 [Dasatinib] (partner 0.075 µM)
Method in brief: (§1)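 For relative viability, nuclei counts in treated wells were divided by those in vehicle wells. Lung cancer cell lines had been pin-tool dosed in 1536-well plates the day after seeding and cultured for 5 days, then fixed and stained in one step (final 0.05% Triton X-100, 1% formaldehyde, 1 ug/ml Hoechst) and imaged at 4×. Doses were one drug alone or a fixed anchor-drug dose plus five library-drug doses (not always all listed) in √10 steps, and values are duplicate-plate medians.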

[1] = compound: Cn1nnc2c(C(N)=O)ncn2c1=O [Temozolomide] + N=C(N)NC(=N)NCCc1ccccc1 [Phenformin] (partner 250 µM)
Method in brief: as §1

Temozolomide + Foretinib = compound: Cn1nnc2c(C(N)=O)ncn2c1=O [Temozolomide] + COc1cc2c(Oc3ccc(NC(=O)C4(C(=O)Nc5ccc(F)cc5)CC4)cc3F)ccnc2cc1OCCCN1CCOCC1 [Foretinib] (partner 0.25 µM)
Method in brief: as §1

AZD5582 + Alpelisib = compound: C[C@@H](C(=O)N[C@@H](C1CCCCC1)C(=O)N2CCC[C@H]2C(=O)N[C@@H]3[C@@H](CC4=CC=CC=C34)OCC#CC#CCO[C@@H]5CC6=CC=CC=C6[C@@H]5NC(=O)[C@@H]7CCCN7C(=O)[C@H](C8CCCCC8)NC(=O)[C@H](C)NC)NC [AZD5582] + Cc1nc(NC(=O)N2CCC[C@H]2C(N)=O)sc1-c1ccnc(C(C)(C)C(F)(F)F)c1 [Alpelisib] (partner 2 µM)
Method in brief: as §1

Cell Line	relative viability (AZD5582 + Dasatinib; first compound 0.001581 µM)	relative viability (AZD5582 + Dasatinib; first compound 0.005 µM)	relative viability (AZD5582 + Dasatinib; first compound 0.01581 µM)	relative viability (AZD5582 + Dasatinib; first compound 0.05 µM)	relative viability ([1]; first compound 0.2 µM)	relative viability ([1]; first compound 0.6325 µM)	relative viability ([1]; first compound 2 µM)	relative viability ([1]; first compound 6.325 µM)	relative viability ([1]; first compound 20 µM)	relative viability (Temozolomide + Foretinib; first compound 0.2 µM)	relative viability (Temozolomide + Foretinib; first compound 0.6325 µM)	relative viability (Temozolomide + Foretinib; first compound 2 µM)	relative viability (Temozolomide + Foretinib; first compound 6.325 µM)	relative viability (Temozolomide + Foretinib; first compound 20 µM)	relative viability (AZD5582 + Alpelisib; first compound 0.001581 µM)	relative viability (AZD5582 + Alpelisib; first compound 0.005 µM)	relative viability (AZD5582 + Alpelisib; first compound 0.01581 µM)	relative viability (AZD5582 + Alpelisib; first compound 0.05 µM)
NCI-H2347	0.304	0.663	0.341	0.303	0.34	0.376	0.378	0.387	0.607	1.11	1.03	1.42	0.773	0.982	0.901	1.05	0.975	0.991
NCI-H2405	0.199	0.24	0.155	0.226	0.492	0.395	0.42	0.378	0.431	0.992	1.07	1.09	1.01	0.994	0.913	1.07	–	0.933
NCI-H3122	0.729	0.707	0.802	0.185	0.394	0.378	0.385	0.376	0.369	0.915	0.924	1.07	1	0.946	0.774	0.858	0.836	0.307
PC-3 [JPC-3]	0.861	0.794	0.97	0.193	0.411	0.475	0.5	0.469	0.347	1.11	1.03	0.998	1.03	0.526	0.889	0.966	0.999	0.703
PC-14	0.258	0.302	0.219	0.257	0.498	0.686	0.519	0.31	0.105	1.07	0.98	1.03	1.01	0.202	0.834	1.03	0.927	0.971
